Test results published in patent publication US12552800B2, “Compounds for diagnosis” (AC IMMUNE SA, priority 2020, dated 2026).

What was measured:
[1] = molecular target: T1, PD brain-derived a-syn aggregates (Homo sapiens, UniProt P37840); experiment: Micro-radiobinding competition assay against Example-1 [^3H-1] (Table 8); type: binding
T1 construct: from tissue; host or cells: human PD donor brain, sarkosyl-insoluble 100,000 x g pellet
How it was run: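 Human PD brain-derived α-syn aggregates on microarray slides were co-incubated with 6 nM or 20 nM tritiated radioligand and unlabelled compound at 1 μM and 100 nM, some over 0.05 nM–2 μM. Bound signal read by real-time autoradiography; values are % competition, at least two technical replicates, mean of independent experiments.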

[2] = molecular target: T2, Abeta pathological aggregates (Homo sapiens, UniProt P05067); experiment: Radiobinding competition assay against [^3H]-Abeta-Ref on AD brain homogenates (example compound 4); type: binding; settings: displacement of [^3H]-Abeta-Ref at 10 nM, AD brain-derived homogenates
T2 construct: Abeta pathological aggregates present in the human AD brain homogenates; from tissue; host or cells: human AD donor brain, Triton/sucrose-insoluble 100,000 x g pellet
T2 sequence (P05067 672-713 limits assumed): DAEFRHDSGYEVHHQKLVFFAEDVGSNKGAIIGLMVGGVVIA
Description: The procedure was adapted from the protocol described in Bagchi et al., 2013. Frozen tissue blocks from AD donors were thawed on ice and homogenized in high salt buffer (50 mM Tris-HCl pH 7.5, 0.75M NaCl, 5 mM EDTA) supplemented with protease inhibitors (Complete; Roche 11697498001) at 4° C. using a glass Dounce homogenizer. The homogenate was centrifuged at 100,000×g (38,000 RPM) in an ultracentrifuge (Beckman, XL100K) for one hour at 4° C. using a pre-cooled 70.1 rotor (Beckman, 342184). Pellets were resuspended in high salt buffer supplemented with 1% Triton X-100 and homogenized at 4° C. using a glass Dounce homogenizer. The homogenates were centrifuged again at 100,000×g (38,000 RPM, 70.1 rotor) for one hour at 4° C. Pellets were resuspended in high salt buffer supplemented with 1% Triton X-100 and 1 M sucrose and homogenized at 4° C. using a glass Dounce homogenizer. The homogenates were centrifuged at 100,000×g (38,000 RPM, 70.1 rotor) for one hour at 4° C. […]
A fixed concentration of AD insoluble fraction was incubated with a tritiated reference Abeta ligand ([^3H]-Abeta-Ref) at 10 nM and increasing concentrations of non-radiolabelled example compound 1 in the range of 400 pM to 2 μM for two hours at RT. […] The filters were analyzed on a Microbeta2 scintillation counter (PerkinElmer). […]

Compound: Cn1cc(N2Cc3nn(-c4ccc(N5CC[C@@H](F)C5)nc4)cc3C2=O)cn1 [Example 4]
- Competition at 100 nM (%) ([1]; 100 nM non-radiolabelled example compound vs Example-1 [^3H-1] ligand, human PD brain-derived a-syn aggregates): 58%
- Competition at 1 μM (%) ([1]; 1 μM non-radiolabelled example compound vs Example-1 [^3H-1] ligand, human PD brain-derived a-syn aggregates): 92%
- Ki ([1]; mean of Ki values in independent experiments using PD brain-derived homogenates from three different donors): 50 nM
- Ki [2]: 297 nM
